The compounds below were run on second-instar larvae of diamondback moth (Plutella xylostella) (assay: Test Example 11: diamondback moth mortality on treated cabbage). Conditions: 120 h, 500 ppm spray on cabbage, 20 mL per cup, 5 days at 25° C.
Assay type: in vivo
Method: As a test chemical solution used in the present test example, a water dilution (test chemical solution) was prepared so as to contain a predetermined concentration (500 ppm) of any one compound of the present compounds 1, 15, 17, and 55.
The test chemical solution was sprayed over cabbage in three-leaf stage sowed and grown in a polyethylene at a rate of 20 mL per cup. After drying the chemical solution, the stem and leaf portions were cut and disposed in a 50 mL cup. Five (5) heads of second-instar larvae of diamondback moth (Plutella xylostella) were released and then a lid was put on the cup. After storage at 25° C. for 5 days, the number of the dead insects was counted and mortality was calculated by the following equation. Mortality (%)=(number of dead insects/number of tested insects)×100
`Cc1cccc(-n2nnn(C)c2=O)c1OCc1ccccc1` [Present Compound 1, 1-(2-phenylmethoxy-3-methylphenyl)-4-methyl-1,4-dihydrotetrazol-5-one] was tested, and the mortality at 500 ppm was ≥ 80%.
In the case of `Cc1ccc(-c2ccc(COc3c(C)cccc3-n3nnn(C)c3=O)c(C)c2)cc1` [Present Compound 15], the mortality at 500 ppm was ≥ 80%.
In the case of `Cc1cc(-c2ccccc2C)ccc1COc1c(C)cccc1-n1nnn(C)c1=O` [Present Compound 17], the mortality at 500 ppm was ≥ 80%.
In the case of `COc1ccccc1-c1csc(COc2c(C)cccc2-n2nnn(C)c2=O)n1` [Present Compound 55, 2-({[1-(4,5-dihydro-4-methyl-5-oxo-1H-tetrazol-1-yl)-3-methylphenyl-2-yl]oxy}methyl)-4-(2-methoxyphenyl)thiazole], the mortality at 500 ppm was ≥ 80%.

— US10091998B2, “Tetrazolinone compound and use thereof” (SUMITOMO CHEMICAL COMPANY, LIMITED, priority 2013, dated 2018)
